The text below walks through data of patent US20250042873A1, “COMPOSITIONS AND METHODS FOR TREATING PROTEOTOXICITY-ASSOCIATED DISEASES” (priority 2021, published 2025).

Data set [1] relates to SOD1G93A ALS mouse model. As to the kind of experiment: Motor performance in the SOD1G93A ALS mouse model (Rotarod behavioral assays). The format is in vivo. The note with it: intraperitoneal injections at the same drug concentration, compared with UNC669, FIG. 3J. Here is the method:
The effect of UNC669 was tested on one of the most characterized mouse model of proteotoxicity, the SOD1G93A ALS model.
A number of the newly synthesized UNC669 analogs have been tested for their effects on the clearance of misfolded proteins in the cells.
On the technique in general: In the rotarod test animals must keep their balance on a rotating rod.

For data set [2], the system named is tau protein expressed in human HEK293 cells. The data set is described as follows: Clearance of tau protein expressed in human HEK293 cells. The format is cell-based. To be noted: FIG. 4B.
Data set [3] in a line: Brain penetration and pharmacokinetic studies using mass spectrometry analysis after intraperitoneal administration. In kind it is in vivo. To be noted: mice; for blood-brain barrier penetration (detection in brain and spinal cord tissues): within minutes after intraperitoneal administration, mass spectrometry.
The subject of data set [4] is SOD1G93A ALS mouse model. The note with it: SOD1G93A mice, 17 mg/kg intraperitoneal, weekly from 8 weeks of age, after 12 weeks, FIG. 2B (prior art); cited from earlier work.
Data set [5] has as its system misfolded mutant SOD1 in the spinal cords. To be noted: FIG. 2D (prior art), cited from earlier work.

The structures appear in SMILES notation. “Also recorded” adds a separate entry of the source.

For `O=C(c1cncc(Cl)c1)N1CCC(N2CCCC2)CC1` [FX6], the “effect on improving motor performance (Rotarod)” value in the data set on SOD1G93A ALS mouse model [1] is on record as “greater effects on improving the animals' motor performance”. Further, the “clearance / levels of tau protein” value in data set [2] is recorded as “higher efficacy”. The “blood-brain barrier penetration (detection in brain and spinal cord tissues)” value in data set [3] is listed as “can penetrate the blood-brain barrier”.
In the case of `N#Cc1cccc(C(=O)N2CCC(N3CCCC3)CC2)n1` [FX8], in the data set with SOD1G93A ALS mouse model [1], the “effect on improving motor performance (Rotarod)” value is on record as “greater effects on improving the animals' motor performance”. For the same molecule, the “clearance / levels of tau protein” value in data set [2] is reported as “higher efficacy”. Moreover, the “concentrations in the plasma, brain, or spinal cords” value in data set [3] (3 hours after intraperitoneal administration, FX8 vs FX6 or UNC669, FIG. 3I) is on record as “highest levels of accumulation”. For the same molecule, in data set [3], the “blood-brain barrier penetration (detection in brain and spinal cord tissues)” value is listed as “can penetrate the blood-brain barrier”.
For the molecule `O=C(c1cncc(Br)c1)N1CCC(N2CCCC2)CC1` [UNC669], in the data set on SOD1G93A ALS mouse model [4], the “motor ability / motor performance of the animals” value is “improvement in the animals' motor performance; also recorded: improves the motor ability of the animals”. Besides, the “clearance / levels of tau protein” value in data set [2] is on record as “decrease the levels of tau proteins; also recorded: enhanced clearance of tau protein”. For the same molecule, the “neuronal / motor neuron health (CHAT staining)” value in data set [5] (SOD1-G93A mice spinal cords) is listed as “improved the health of the motor neurons; also recorded: improved neuronal health”. The “immunostaining of spinal cords with antibody specific for misfolded proteins” value in data set [5] (SOD1-G93A mice) is recorded as “reduction of the mutant protein”.
